From EP4707280A1, “1,4-CINEOLE DERIVATIVE AND INTERMEDIATE THEREOF, HERBICIDE CONTAINING SAID DERIVATIVE AS ACTIVE INGREDIENT, METHOD FOR USING HERBICIDE, AND METHOD FOR PREPARING AGROCHEMICAL COMPOSITION” (HOKKO CHEMICAL INDUSTRY CO., LTD., priority 2023, dated 2024)

Assays:
Type in all cases: in vivo
Digitaria ciliaris [1] = experiment: Test Example 3: herbicidal effect test by soil application in upland field; details: Digitaria ciliaris, 120 g per 10 ares, sprayed one day after sowing, 14 days after application, read-out: weed inhibition rate
Procedure, shortened: (§1)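 Weed inhibition (%) was assessed 14 days after treatment, in duplicate per concentration group. Seeds had been mixed into the upper 1 cm of upland alluvial loam, and the soil surface was sprayed one day later with the diluted emulsifiable concentrate at 120 g active ingredient per 10 ares.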

Echinochloa crus-galli [2] = experiment: as above; details: Echinochloa crus-galli, 120 g per 10 ares, sprayed one day after sowing, 14 days after application, read-out: weed inhibition rate
Procedure, shortened: as §1

Digitaria ciliaris [3] = experiment: Test Example 7: herbicidal effect test by soil application in upland field (low dose); details: Digitaria ciliaris, 7.5 g per 10 ares, sprayed one day after sowing, 14 days after application, read-out: weed inhibition rate
Procedure, shortened: (§2)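 Low-dose soil treatment at 7.5 g a.i. per 10 a, applied as a diluted emulsifiable concentrate sprayed onto the soil surface one day after sowing in upland alluvial loam. Duplicate pots; percent weed inhibition is read 14 days after application.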

Echinochloa crus-galli [4] = experiment: as above; details: Echinochloa crus-galli, 7.5 g per 10 ares, sprayed one day after sowing, 14 days after application, read-out: weed inhibition rate
Procedure, shortened: as §2

[5] = system: Echinochloa crus-galli var. formosensis; experiment: Test Example 6: herbicidal effect test by application during growth period of paddy rice (low dose); details: Echinochloa crus-galli; 7.5 g per 10 ares; applied seven days after sowing, flooded pots; 14 days after application; read-out: weed inhibition rate
Procedure, shortened: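 Puddled, fertilised paddy soil was sown with 30 seeds per species and flooded to about 3 cm. After 7 days in a glass greenhouse, the diluted emulsifiable concentrate went into the water by dropper at 7.5 g/10 a. Effect scored at 14 days.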

Echinochloa crus-galli [6] = experiment: Test Example 4: herbicidal effect test by stem and leaf treatment in upland field; details: Echinochloa crus-galli; 120 g per 10 ares; sprayed seven days after sowing, upland soil; 14 days after application; read-out: weed inhibition rate
Scirpus juncoides [7] = experiment: Test Example 2: herbicidal effect test by application during growth period of paddy rice; details: Schoenoplectiella juncoides; 120 g per 10 ares; applied seven days after sowing, flooded pots; 14 days after application; read-out: weed inhibition rate
Procedure, shortened: (§3)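 Weeds sown into puddled, flooded paddy soil received a post-emergence water application of emulsifiable concentrate at 120 g active ingredient per 10 ares, seven days after sowing. Herbicidal effect was rated 14 days later as inhibition (%).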

[8] = system: Echinochloa crus-galli var. formosensis; experiment: as above; details: Echinochloa crus-galli; 120 g per 10 ares; applied seven days after sowing, flooded pots; 14 days after application; read-out: weed inhibition rate
Procedure, shortened: as §3

Digitaria ciliaris [9] = experiment: Test Example 4: herbicidal effect test by stem and leaf treatment in upland field; details: Digitaria ciliaris; 120 g per 10 ares; sprayed seven days after sowing, upland soil; 14 days after application; read-out: weed inhibition rate
[10] = system: Echinochloa crus-galli var. formosensis; experiment: Test Example 5: herbicidal effect test by soil application in paddy rice (low dose); details: Echinochloa crus-galli, soil, 336 h; 7.5 g per 10 ares; applied immediately after sowing, flooded pots; 14 days after application; read-out: weed inhibition rate
Procedure, shortened: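 Pots of puddled, fertilized paddy soil receive 30 seeds per species at 0–1 cm depth and are flooded to about 3 cm. The diluted emulsifiable concentrate is then dropped onto the water, delivering 7.5 g active ingredient per 10 ares. Greenhouse grown; herbicidal effect scored 14 days later, two replicates.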

Digitaria ciliaris [11] = experiment: Test Example 8: herbicidal effect test by stem and leaf treatment in upland field (low dose); details: Digitaria ciliaris; 7.5 g per 10 ares; sprayed seven days after sowing, upland soil; 14 days after application; read-out: weed inhibition rate
Echinochloa crus-galli [12] = experiment: as above; details: Echinochloa crus-galli; 7.5 g per 10 ares; sprayed seven days after sowing, upland soil; 14 days after application; read-out: weed inhibition rate
Scirpus juncoides [13] = experiment: Test Example 1: herbicidal effect test by soil application in paddy rice; details: Schoenoplectiella juncoides, soil, 336 h; 120 g active ingredient per 10 ares; applied immediately after sowing, flooded pots; 14 days after application; read-out: weed inhibition rate
Procedure, shortened: (§4)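 Flooded-pot paddy assay: sow at 0–1 cm, flood to about 3 cm, then apply diluted emulsifiable concentrate by dropper, 120 g a.i. per 10 ares; greenhouse-grown.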

[14] = system: Echinochloa crus-galli var. formosensis; experiment: as above; details: Echinochloa crus-galli, soil, 336 h; 120 g active ingredient per 10 ares; applied immediately after sowing, flooded pots; 14 days after application; read-out: weed inhibition rate
Procedure, shortened: as §4

CC(C)[C@]12C[C@@H](OCc3ccsc3)[C@](C)(C[C@@H]1I)O2 [1-789, (1R,2S,4S,5R)-2-iodo-1-isopropyl-4-methyl-5-(3-thienylmethoxy)-7-oxabicyclo[2.2.1]heptane]
≥ 80%: inhibition at 1200 g/ha (Digitaria ciliaris [1]) | inhibition at 1200 g/ha (Echinochloa crus-galli [2]) | inhibition at 75 g/ha (Digitaria ciliaris [3]) | inhibition at 75 g/ha (Echinochloa crus-galli [4]) | inhibition at 75 g/ha [5] | inhibition at 1200 g/ha (Echinochloa crus-galli [6]) | inhibition at 1200 g/ha (Scirpus juncoides [7]) | inhibition at 1200 g/ha [8] | inhibition at 1200 g/ha (Digitaria ciliaris [9]) | inhibition at 75 g/ha [10] | inhibition at 75 g/ha (Digitaria ciliaris [11]) | inhibition at 75 g/ha (Echinochloa crus-galli [12]) | pest or weed control at 1200 g/ha (Scirpus juncoides [13]) | pest or weed control at 1200 g/ha [14]

CC(C)[C@@]12C[C@H](OCc3c(F)cccc3F)[C@@](C)(C[C@H]1I)O2 [1-1119, (1R,2S,4S,5R)-2-[(2,6-difluorophenyl)methoxy]-5-iodo-1-methyl-4-isopropyl-7-oxabicyclo[2.2.1]heptane]
≥ 80%: inhibition at 1200 g/ha (Digitaria ciliaris [1]) | inhibition at 1200 g/ha (Echinochloa crus-galli [2]) | inhibition at 75 g/ha (Digitaria ciliaris [3]) | inhibition at 75 g/ha (Echinochloa crus-galli [4]) | inhibition at 75 g/ha [5] | inhibition at 1200 g/ha (Echinochloa crus-galli [6]) | inhibition at 1200 g/ha (Scirpus juncoides [7]) | inhibition at 1200 g/ha [8] | inhibition at 1200 g/ha (Digitaria ciliaris [9]) | inhibition at 75 g/ha [10] | inhibition at 75 g/ha (Digitaria ciliaris [11]) | inhibition at 75 g/ha (Echinochloa crus-galli [12]) | pest or weed control at 1200 g/ha (Scirpus juncoides [13]) | pest or weed control at 1200 g/ha [14]

CC(C)C12CC(OCc3ccccc3Cl)C(C)(CC1Cl)O2 (stereo not shown) [1-1292, 5-chloro-2-[(2-chlorophenyl)methoxy]-1-methyl-4-isopropyl-7-oxabicyclo[2.2.1]heptane]
≥ 80%: inhibition at 1200 g/ha (Digitaria ciliaris [1]) | inhibition at 1200 g/ha (Echinochloa crus-galli [2]) | inhibition at 75 g/ha (Digitaria ciliaris [3]) | inhibition at 75 g/ha (Echinochloa crus-galli [4]) | inhibition at 75 g/ha [5] | inhibition at 1200 g/ha (Echinochloa crus-galli [6]) | inhibition at 1200 g/ha (Scirpus juncoides [7]) | inhibition at 1200 g/ha [8] | inhibition at 1200 g/ha (Digitaria ciliaris [9]) | inhibition at 75 g/ha [10] | inhibition at 75 g/ha (Digitaria ciliaris [11]) | inhibition at 75 g/ha (Echinochloa crus-galli [12]) | pest or weed control at 1200 g/ha (Scirpus juncoides [13]) | pest or weed control at 1200 g/ha [14]

CC(C)C12CC(OCc3ccccc3Br)C(C)(CC1Cl)O2 (stereo not shown) [1-1295, 2-[(2-bromophenyl)methoxy]-5-chloro-1-methyl-4-isopropyl-7-oxabicyclo[2.2.1]heptane]
≥ 80%: inhibition at 1200 g/ha (Digitaria ciliaris [1]) | inhibition at 1200 g/ha (Echinochloa crus-galli [2]) | inhibition at 75 g/ha (Digitaria ciliaris [3]) | inhibition at 75 g/ha (Echinochloa crus-galli [4]) | inhibition at 75 g/ha [5] | inhibition at 1200 g/ha (Echinochloa crus-galli [6]) | inhibition at 1200 g/ha (Scirpus juncoides [7]) | inhibition at 1200 g/ha [8] | inhibition at 1200 g/ha (Digitaria ciliaris [9]) | inhibition at 75 g/ha [10] | inhibition at 75 g/ha (Digitaria ciliaris [11]) | inhibition at 75 g/ha (Echinochloa crus-galli [12]) | pest or weed control at 1200 g/ha (Scirpus juncoides [13]) | pest or weed control at 1200 g/ha [14]

CC(C)C12CC(OCc3ccccc3I)C(C)(CC1Cl)O2 (stereo not shown) [1-1298, 5-chloro-2-[(2-iodophenyl)methoxy]-1-methyl-4-isopropyl-7-oxabicyclo[2.2.1]heptane]
≥ 80%: inhibition at 1200 g/ha (Digitaria ciliaris [1]) | inhibition at 1200 g/ha (Echinochloa crus-galli [2]) | inhibition at 75 g/ha (Digitaria ciliaris [3]) | inhibition at 75 g/ha (Echinochloa crus-galli [4]) | inhibition at 75 g/ha [5] | inhibition at 1200 g/ha (Echinochloa crus-galli [6]) | inhibition at 1200 g/ha (Scirpus juncoides [7]) | inhibition at 1200 g/ha [8] | inhibition at 1200 g/ha (Digitaria ciliaris [9]) | inhibition at 75 g/ha [10] | inhibition at 75 g/ha (Digitaria ciliaris [11]) | inhibition at 75 g/ha (Echinochloa crus-galli [12]) | pest or weed control at 1200 g/ha (Scirpus juncoides [13]) | pest or weed control at 1200 g/ha [14]

CC(C)C12CC(OCc3ccccc3C#N)C(C)(CC1Cl)O2 (stereo not shown) [1-1304, 2-[(5-chloro-1-methyl-4-isopropyl-7-oxabicyclo[2.2.1]heptan-2-yl)oxymethyl]benzonitrile]
≥ 80%: inhibition at 1200 g/ha (Digitaria ciliaris [1]) | inhibition at 1200 g/ha (Echinochloa crus-galli [2]) | inhibition at 75 g/ha (Digitaria ciliaris [3]) | inhibition at 75 g/ha (Echinochloa crus-galli [4]) | inhibition at 75 g/ha [5] | inhibition at 1200 g/ha (Echinochloa crus-galli [6]) | inhibition at 1200 g/ha (Scirpus juncoides [7]) | inhibition at 1200 g/ha [8] | inhibition at 1200 g/ha (Digitaria ciliaris [9]) | inhibition at 75 g/ha [10] | inhibition at 75 g/ha (Digitaria ciliaris [11]) | inhibition at 75 g/ha (Echinochloa crus-galli [12]) | pest or weed control at 1200 g/ha (Scirpus juncoides [13]) | pest or weed control at 1200 g/ha [14]

CC(C)C12CC(OCc3c(F)cccc3F)C(C)(CC1Cl)O2 (stereo not shown) [1-1313, 5-chloro-2-[(2,6-difluorophenyl)methoxy]-1-methyl-4-isopropyl-7-oxabicyclo[2.2.1]heptane]
≥ 80%: inhibition at 1200 g/ha (Digitaria ciliaris [1]) | inhibition at 1200 g/ha (Echinochloa crus-galli [2]) | inhibition at 75 g/ha (Digitaria ciliaris [3]) | inhibition at 75 g/ha (Echinochloa crus-galli [4]) | inhibition at 75 g/ha [5] | inhibition at 1200 g/ha (Echinochloa crus-galli [6]) | inhibition at 1200 g/ha (Scirpus juncoides [7]) | inhibition at 1200 g/ha [8] | inhibition at 1200 g/ha (Digitaria ciliaris [9]) | inhibition at 75 g/ha [10] | inhibition at 75 g/ha (Digitaria ciliaris [11]) | inhibition at 75 g/ha (Echinochloa crus-galli [12]) | pest or weed control at 1200 g/ha (Scirpus juncoides [13]) | pest or weed control at 1200 g/ha [14]

CC(C)C12CC(OCc3c(Cl)cccc3Cl)C(C)(CC1Cl)O2 (stereo not shown) [1-1314, 5-chloro-2-[(2,6-dichlorophenyl)methoxy]-1-methyl-4-isopropyl-7-oxabicyclo[2.2.1]heptane]
≥ 80%: inhibition at 1200 g/ha (Digitaria ciliaris [1]) | inhibition at 1200 g/ha (Echinochloa crus-galli [2]) | inhibition at 75 g/ha (Digitaria ciliaris [3]) | inhibition at 75 g/ha (Echinochloa crus-galli [4]) | inhibition at 75 g/ha [5] | inhibition at 1200 g/ha (Echinochloa crus-galli [6]) | inhibition at 1200 g/ha (Scirpus juncoides [7]) | inhibition at 1200 g/ha [8] | inhibition at 1200 g/ha (Digitaria ciliaris [9]) | inhibition at 75 g/ha [10] | inhibition at 75 g/ha (Digitaria ciliaris [11]) | inhibition at 75 g/ha (Echinochloa crus-galli [12]) | pest or weed control at 1200 g/ha (Scirpus juncoides [13]) | pest or weed control at 1200 g/ha [14]
